# Measured values: US20070082841A1, “Ocular administration of immunosuppressive agents” (Aciont, Inc., priority 2005, published 2007)
# Assay: Ocular iontophoretic delivery of MPA in rabbits; amounts in eye tissues by HPLC
# Assay type: in vivo, New Zealand white rabbits
# Settings: rabbit eye; iontophoresis 3 mA for 20 minutes, 20 μL of 0.6 M MPA in 1% agarose gel, 0.07 cm^2; 15 minutes after delivery
# Method: Three New Zealand white rabbits were each fitted with ocular iontophoretic device on one eye. Each device contained 20 μL of 0.6 M mycophenolic acid (MPA) in 1% agarose gel. A vacuum was provided between the eyes of the rabbits and the ocular iontophoretic device by withdrawing 0.2 cc from the space therebetween. MPA was iontophoretically delivered from the cathodes of the devices on the conjunctiva/sclera near the limbus and the upper eyelid using constant current control from standard iontophoretic dose controller. The MPA was iontophoretically delivered through a surface area of 0.07 cm^2 at 3 mA for 20 minutes. The anode electrode was attached on the rabbit's ear, opposite the treatment eye. Rabbits were euthanized at 15 minutes following completion of the iontophoretic delivery. Treatment eyes were dissected and the amounts of MPA in the conjunctiva, sclera, retina, and vitreous were determined using HPLC assay.
smiles,measurement,value
"COc1c(C)c2c(c(O)c1C/C=C(\C)CCC(=O)O)C(=O)OC2 [MPA, mycophenolic acid]","MPA Amount, Conjunctiva",30.45 µg
same,"MPA Amount, Retina",1.60 µg
same,"MPA Amount, Sclera",20.65 µg
same,"MPA Amount, Total (combined total for all of the dissections)",60.75 µg
same,"MPA Amount, Vitreous",2.45 µg
